Test results: ChEMBL document CHEMBL1933028, “Discovery of cyclic amine-substituted benzoic acids as PPARα agonists” (Bioorg Med Chem Lett, 2012)
Changes are numbered by the printed parent chain.

Key:
Canis familiaris [1] = assay: Toxicity in high-fat diet fed dog assessed as effect on food intake at 0.003 mg/kg, po administered QD for 1 week (reference value: 3.67+/-0.09 kg); assay type: organism-based, Canis lupus familiaris; design: dose 0.003 mg/kg, route oral; conditions: in vivo, 168 h
[2] = biological target: T1, Peroxisome proliferator-activated receptor alpha (Rattus norvegicus, UniProt P37230); assay: Agonist activity at rat PPARalpha; assay type: functional
T1 sequence (P37230 whole entry): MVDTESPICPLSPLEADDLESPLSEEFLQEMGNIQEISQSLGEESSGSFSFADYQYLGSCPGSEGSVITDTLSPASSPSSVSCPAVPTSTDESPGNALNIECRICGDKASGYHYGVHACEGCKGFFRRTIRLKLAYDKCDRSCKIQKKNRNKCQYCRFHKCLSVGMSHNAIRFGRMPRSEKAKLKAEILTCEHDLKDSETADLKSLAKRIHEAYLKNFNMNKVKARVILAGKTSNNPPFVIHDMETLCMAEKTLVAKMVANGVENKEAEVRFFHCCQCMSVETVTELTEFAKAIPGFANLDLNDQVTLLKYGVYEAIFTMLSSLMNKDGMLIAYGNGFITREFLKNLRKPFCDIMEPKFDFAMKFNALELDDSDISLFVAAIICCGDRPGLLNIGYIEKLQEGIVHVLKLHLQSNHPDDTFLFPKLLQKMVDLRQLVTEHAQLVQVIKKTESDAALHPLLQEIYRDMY

[3] = Agonist activity at hamster PPARdelta; assay type: functional, Cricetinae
[4] = Oral bioavailability in dog at 0.3 mg/kg; assay type: ADME, organism-based, Canis lupus familiaris; conditions: in vivo
[5] = Half life in dog at 0.3 mg/kg, po; assay type: ADME, organism-based, Canis lupus familiaris; design: dose 0.3 mg/kg, route oral; conditions: in vivo
Canis familiaris [6] = assay: Volume of distribution at steady state in dog at 0.3 mg/kg, po; assay type: ADME, organism-based, Canis lupus familiaris; design: dose 0.3 mg/kg, route oral; conditions: in vivo
[7] = Cmax in dog at 0.3 mg/kg, po; assay type: ADME, organism-based, Canis lupus familiaris; design: dose 0.3 mg/kg, route oral; conditions: in vivo
[8] = biological target: T2, Peroxisome proliferator-activated receptor gamma (Rattus norvegicus, UniProt O88275); assay: Agonist activity at rat PPARgamma; assay type: functional
T2 sequence (O88275 whole entry): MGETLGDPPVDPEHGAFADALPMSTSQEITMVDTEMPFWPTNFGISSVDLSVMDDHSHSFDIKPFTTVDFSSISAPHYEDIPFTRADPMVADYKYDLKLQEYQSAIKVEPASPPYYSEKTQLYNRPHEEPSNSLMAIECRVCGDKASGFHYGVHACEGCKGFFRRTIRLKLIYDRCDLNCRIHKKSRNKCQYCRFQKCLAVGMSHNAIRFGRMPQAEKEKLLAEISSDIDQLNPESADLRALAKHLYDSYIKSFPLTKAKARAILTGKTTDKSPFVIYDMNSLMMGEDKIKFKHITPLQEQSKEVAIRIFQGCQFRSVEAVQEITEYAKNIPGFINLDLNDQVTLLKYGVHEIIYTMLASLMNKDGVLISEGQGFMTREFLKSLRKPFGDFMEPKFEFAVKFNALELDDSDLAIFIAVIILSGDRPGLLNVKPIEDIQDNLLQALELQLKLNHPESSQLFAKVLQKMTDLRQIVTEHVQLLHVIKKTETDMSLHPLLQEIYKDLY

Canis familiaris [9] = assay: Antidyslipidemic activity in high-fat diet fed dog assessed as decrease in free fatty acid at 0.003 mg/kg, po administered QD for 1 week (reference value: 0.624 +/- 0.057 mEq/L); assay type: functional, Canis lupus familiaris
[10] = Agonist activity at rat PPARdelta; assay type: functional
[11] = Agonist activity at hamster PPARgamma; assay type: functional, Cricetinae
[12] = biological target: T3, Peroxisome proliferator-activated receptor gamma (Mus musculus, UniProt P37238); assay: Agonist activity at mouse PPARgamma; assay type: functional
T3 sequence (P37238 whole entry): T2 sequence (O88275 whole entry) with P8S, D54E, S383N

Canis familiaris [13] = assay: Toxicity in high-fat diet fed dog assessed as effect on food intake at 0.03 mg/kg, po administered QD for 1 week (reference value: 3.67+/-0.09 kg); assay type: organism-based, Canis lupus familiaris; design: dose 0.03 mg/kg, route oral; conditions: in vivo, 168 h
Rattus norvegicus = assay: Volume of distribution at steady state in rat at 1 mg/kg, po; assay type: ADME, organism-based; design: dose 1 mg/kg, route oral; conditions: in vivo
[14] = biological target: T4, Peroxisome proliferator-activated receptor delta (Canis lupus familiaris, UniProt Q0ZAQ8); assay: Agonist activity at dog PPARdelta; assay type: functional
T4 sequence (Q0ZAQ8 whole entry): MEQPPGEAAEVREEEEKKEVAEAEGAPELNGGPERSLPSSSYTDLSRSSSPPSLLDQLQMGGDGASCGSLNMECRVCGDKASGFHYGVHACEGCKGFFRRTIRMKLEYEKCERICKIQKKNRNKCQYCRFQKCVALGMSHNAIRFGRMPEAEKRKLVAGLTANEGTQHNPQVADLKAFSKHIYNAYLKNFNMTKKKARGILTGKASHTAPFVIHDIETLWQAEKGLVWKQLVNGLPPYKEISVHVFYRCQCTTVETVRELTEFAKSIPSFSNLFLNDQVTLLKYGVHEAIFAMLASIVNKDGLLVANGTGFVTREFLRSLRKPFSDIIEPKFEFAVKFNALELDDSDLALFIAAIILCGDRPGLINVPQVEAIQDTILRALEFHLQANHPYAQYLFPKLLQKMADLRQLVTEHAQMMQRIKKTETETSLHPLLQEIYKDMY

Canis familiaris [15] = assay: Antidyslipidemic activity in high-fat diet fed dog assessed as decrease in serum triglyceride level at 0.03 mg/kg, po administered QD for 1 week (reference value: 98 +/- 4 mg/dL); assay type: functional, Canis lupus familiaris
Canis familiaris [16] = assay: Toxicity in high-fat diet fed dog assessed as change in body weight at 0.003 mg/kg, po administered QD for 1 week (reference value: 14.8 +/- 0.7 kg); assay type: organism-based, Canis lupus familiaris; design: dose 0.003 mg/kg, route oral; conditions: in vivo, 168 h
[17] = Total clearance in rat at 1 mg/kg, po; assay type: ADME, organism-based; design: dose 1 mg/kg, route oral; conditions: in vivo
Canis familiaris [18] = assay: Antidyslipidemic activity in high-fat diet fed dog assessed as decrease in serum triglyceride level at 0.01 mg/kg, po administered QD for 1 week (reference value: 98 +/- 4 mg/dL); assay type: functional, Canis lupus familiaris
Canis familiaris [19] = assay: Antidyslipidemic activity in high-fat diet fed dog assessed as decrease in non-HDL cholesterol at 0.003 mg/kg, po administered QD for 1 week (reference value: 75 +/- 5 mg/dL); assay type: functional, Canis lupus familiaris

EC50 [2]: 3.6 µM
EC50 [3]: > 7.1 µM
bioavailability [4]: 73.1%
half-life [5]: 74 h
Vdss (Canis familiaris [6]): 1.66 L/kg
Cmax [7]: 295 ng/mL
EC50 [8]: 13 µM
EC50 [10]: > 14 µM
EC50 [11]: > 15 µM
EC50 [12]: 12 µM
Vdss (Rattus norvegicus): 0.832 L/kg
EC50 [14]: 2.7 µM
CL/F [17]: 1.53 mL/min/kg
SMILES: Cc1nc(-c2ccc(Cl)cc2)sc1C(=O)N[C@H]1CCCN(c2cccc(C(=O)O)c2)C1
Activity (Canis familiaris [1]): 3.85 kg
Activity (Canis familiaris [9]): 0.607 mEq/L
Activity (Canis familiaris [13]): 3.51 kg
Activity (Canis familiaris [15]): 44 mg/dL
Activity (Canis familiaris [16]): 15.3 kg
Activity (Canis familiaris [18]): 48 mg/dL
Activity (Canis familiaris [19]): 65 mg/dL
